Entries after “also recorded” stand apart in the source; their conditions may differ.
Columns and labels:
[1] = cited from earlier work
[2] = Re-precipitation of mometasone furoate in solvent systems of Ex. 10 and 11 of DE102006034883; type: physicochemical; details: then 40.56 parts of water
Method: Similar to Example 7 above, dissolution behaviour of mometasone furoate was also tested for the DIPA-containing prior art cream formulations described in examples 10 and 11 of DE102006034883. For this purpose, mometasone furoate was dissolved in solvent systems based on Ex. 10 and 11 as follows:
Ex. 10: 0.1 parts mometasone furoate were dissolved in 1 part phenoxy ethanol and 10 parts hexylene glycol, resulting in a clear solution.
Ex. 11: 0.1 parts mometasone furoate were dissolved in 1 part phenoxy ethanol and 10 parts diethylene glycol monoethyl ether (Transcutol®), resulting in a clear solution.

[3] = Solubility of mometasone furoate in solvents of prior art formulations; type: physicochemical
Method: Dissolution studies were performed with mometasone furoate in both the oil phase and the aqueous phase of the DIPA-containing lotion formulations of Examples 3 and 9 of DE102006034883 to determine the solubility of mometasone furoate in mg/ml in said formulations. For this purpose, first, the liquid excipients of the oil phase and the aqueous phase were mixed in the correct relative amounts to form the respective solvent systems; the low amounts of solid excipients contained in the formulations were not considered. Based on the weight ratio between oil and water phase, the theoretical solubility of mometasone furoate in the complete formulation can then be estimated using the formula: [proportion of oil phase·solubility in oil phase]+[proportion of aqueous phase·solubility in aqueous phase] For instance, for Ex. 3 of DE102006034883, the oil phase (paraffinum liquidum) makes up about 20 wt. %, the remainder is the aqueous phase. […] For instance, for Ex. 9 of DE102006034883, the oil phase makes up 27.88 wt. %, the remainder is the aqueous phase.

solubility in liquid paraffin [3]: about 0.05 mg/mL | Solubility of mometasone furoate ([3]; Aqueous phase Ex. 3 of DE102006034883 (phenoxy ethanol, polysorbate 40, Transcutol, water)): 0.15 mg/mL | Solubility of mometasone furoate ([3]; Aqueous phase Ex. 9 of DE102006034883 (phenoxy ethanol, Steareth 21, hexylene glycol, water)): 0.09 mg/mL | Solubility of mometasone furoate ([3]; Oil phase Ex. 3 of DE102006034883 (liquid paraffin)): 0.05 mg/mL | Solubility of mometasone furoate ([3]; Oil phase Ex. 9 of DE102006034883 (MCT, DIPA, liquid paraffin, Capryol 90)): 0.83 mg/mL | overall theoretical solubility ([3]; complete formulation Ex. 3 of DE102006034883): about 0.13 mg/ml | overall theoretical solubility ([3]; complete formulation Ex. 9 of DE102006034883): about 0.293 mg/ml
SMILES: C[C@@H]1C[C@H]2[C@@H]3CCC4=CC(=O)C=C[C@]4(C)[C@@]3(Cl)[C@@H](O)C[C@]2(C)[C@@]1(OC(=O)c1ccco1)C(=O)CCl [mometasone furoate, 9α,21-dichloro-11β,17α-dihydroxy-16α-methylpregna-1,4-diene-3,20-dione 17-(2-furoate)]
log P [1]: about 4 | water solubility [1]: about 0.95 μg/mL | behaviour on addition of aqueous phase ([2]; Ex. 10 solvent system: phenoxy ethanol, hexylene glycol): precipitation of mometasone furoate; also recorded: precipitated | behaviour on addition of aqueous phase ([2]; Ex. 11 solvent system: phenoxy ethanol, Transcutol®): precipitation of mometasone furoate; also recorded: precipitated

Source: patent US12447161B2, “Topical pharmaceutical formulation” (RaDes GmbH, priority 2021, dated 2025)
